From patent publication US9283256B2, “Antibacterial composition comprising Salvia extracts” (Botanic Century (Beijing) Co. Ltd., priority 2007, dated 2016)
≈ marks a conversion by molar mass, not a printed value. Read-outs that look alike come from different tables or passages of the source.

Assays:
Staphylococcus aureus = settings: filter paper disc, chemicals isolated from Danshen; cited from earlier work
[1] = tested on: clinical isolates of MRSA (T3, 102, MRSA 99); assay type: cell-based, Staphylococcus aureus; settings: sub-inhibitory sub-culture, 3 week test period
Experimental: This experiment was conducted to test for the rapid development of resistance in Staphylococcus aureus in the presence of sub-inhibitory doses of the active extract.
All clinical strains were from The Royal London, St Bartholomew's or Newham hospitals in London. Each strain had been identified as an MRSA.
High concentrations of organisms (10^7cfu/ml^−1) were grown in sub-inhibitory concentrations 0, 2 and 8 mg l^−1 of the active extract.
Organisms were sub-cultured into fresh active extract media at day 4 and again at day 7. MICs were checked weekly using standard methods. Subcultures were carried out in triplicate.

[2] = tested on: Bacillus aeruginosus ATCC227853; settings: dissolved in dimethylformamide (DMF); cited from earlier work
[3] = tested on: Staphylococcus aureus ATCC225923; settings: dissolved in dimethylformamide (DMF); cited from earlier work
Haemolytic streptococcus = settings: dissolved in dimethylformamide (DMF); cited from earlier work
Escherichia coli = settings: dissolved in dimethylformamide (DMF); cited from earlier work
MRSA 2 = test: MIC and MBC by microtitre well methods, PYN6 versus individual compounds (TEST 2); assay type: cell-based, Staphylococcus aureus; settings: for MIC: microtitre well, growth over 20 hrs, 490 nm; for MBC: subculture onto solid media after 20 hrs
Experimental: (§1) Minimum Inhibitory and Minimum Bactericidal activities (MIC and MBC) of PYN6 were determined for 2 strains of MRSA using standard microtitre well methods. MICs were determined by measuring growth over 20 hrs using spectroscopy at 490 nm. MBCs were determined by subculture from these microtitre plates onto solid media after 20 hrs and determining survival of bacteria grown in the presence of PYN6.
TEST 2 MIC and MBC comparing PYN6 to A, B, C and D against MRSA 2

MRSA 98 = test: MIC and MBC by microtitre well methods, PYN6 versus individual compounds (TEST 1); assay type: cell-based, Staphylococcus aureus
Experimental: as §1
TEST 1 MIC and MBC comparing PYN6 to A, B, C and D against MRSA 98

[4] = dissolved in chloroform; cited from earlier work
[5] = Staphylococcus aureus, read-out: MIC
[6] = Staphylococcus aureus, read-out: MBC
[7] = Staphylococcus aureus, MRSA, 20 h
[8] = TEST 1, MRSA 98, microtitre well, growth over 20 hrs, 490 nm
[9] = TEST 1, MRSA 98, subculture onto solid media after 20 hrs

In the case of neotanshinone C, the anti-Staphylococcus aureus activity (Staphylococcus aureus) is listed as “did not show activity”.
For Gentamicin, the development of resistance [1] was “no development of resistance”.
For Cc1coc2c1C(=O)C(=O)c1c-2ccc2c1CCCC2(C)CO (stereo not drawn) [Tanshinone IIB], the MIC [2] is listed as 25 µg/mL (≈ 80.6 µM), the MIC [3] is listed as 50 µg/mL (≈ 161 µM) and the anti-Staphylococcus aureus activity (Staphylococcus aureus) is listed as “demonstrated anti-Staphylococcus aureus activity”. For the same molecule, the MIC (Haemolytic streptococcus) was 25 µg/mL (≈ 80.6 µM) and the “minimum inhibitory concentration (MIC)” value (Escherichia coli) was 25 µg/mL (≈ 80.6 µM).
C[C@H]1COC2=C1C(=O)C(=O)c1c2ccc2c1CCCC2(C)C [D, Cryptotashinone] gave an MIC (MRSA 2; [5]) of 7.7 µg/mL (≈ 26 µM), an MBC (MRSA 2; [6]) of 125 µg/mL (≈ 422 µM) and an MBC (MRSA 98; [7]) of 250 µg/mL (≈ 844 µM). The MIC (MRSA 98; [7]) was 15 µg/mL (≈ 50.6 µM).
In the case of neotanshinone B, the anti-Staphylococcus aureus activity (Staphylococcus aureus) is given as “did not show activity”.
In the case of neotanshinone A, the anti-Staphylococcus aureus activity (Staphylococcus aureus) is given as “did not show activity”.
Molecule Cc1cccc2c3c(ccc12)C1=C(C(=O)C3=O)[C@@H](C)CO1 [C, Dyhydrotashinone] has an MIC (MRSA 2) of 1.8 µg/mL (≈ 6.47 µM), an MBC (MRSA 2) of 62 µg/mL (≈ 223 µM) and an MIC (MRSA 98; [8]) of 8 µg/mL (≈ 28.7 µM). The MBC (MRSA 98; [9]) was 125 µg/mL (≈ 449 µM) and the anti-Staphylococcus aureus activity (Staphylococcus aureus) was “demonstrated anti-Staphylococcus aureus activity”.
For Cc1coc2c1C(=O)C(=O)c1c-2ccc2c1CCCC2(C)C [B, Tashinone 11A], the MIC (MRSA 2; [5]) is listed as 125 µg/mL (≈ 425 µM), the MBC (MRSA 2; [6]) is listed as > 500 µg/mL and the anti-microbial activity [4] is listed as “did not demonstrate any anti-microbial activity”. For the same molecule, the MIC (MRSA 98; Staphylococcus aureus, TEST 1, MRSA 98, microtitre well, growth over 20 hrs, 490 nm, read-out: MIC) was 125 µg/mL (≈ 425 µM), the MBC (MRSA 98; Staphylococcus aureus, TEST 1, MRSA 98, subculture onto solid media after 20 hrs, read-out: MBC) was < 500 µg/mL and the MIC [2] was 50 µg/mL (≈ 170 µM). For the same molecule, the MIC [3] was 100 µg/mL (≈ 340 µM), the anti-Staphylococcus aureus activity (Staphylococcus aureus) was “did not show activity” and the MIC (Haemolytic streptococcus) was 121.5 µg/mL (≈ 413 µM). For the same molecule, the “minimum inhibitory concentration (MIC)” value (Escherichia coli) was 50 µg/mL (≈ 170 µM).
For Cc1coc2c1C(=O)C(=O)c1c-2ccc2c(C)cccc12 [A, Tashinone 1], the MIC (MRSA 2) was 125 µg/mL (≈ 452 µM), the MBC (MRSA 2) was >500 µg/mL and the MIC (MRSA 98; [8]) was 125 µg/mL (≈ 452 µM). The MBC (MRSA 98; [9]) was <500 µg/mL and the anti-Staphylococcus aureus activity (Staphylococcus aureus) was “did not show activity”.
